From patent US8163917B2, “Azaindoles useful as inhibitors of Janus kinases” (Vertex Pharmaceuticals Incorporated, priority 2006, dated 2012)

Columns and labels:
[1] = target: JAK-2 enzyme (Homo sapiens, UniProt O60674); assay: JAK2 Inhibition Assay; format: biochemical; settings: 12 μM ATP, 15 μM poly(Glu)4Tyr
Experimental: (§1) Compounds were screened for their ability to inhibit JAK3 using the assay shown below. Reactions were carried out in a kinase buffer containing 100 mM HEPES (pH 7.4), 1 mM DTT, 10 mM MgCl2, 25 mM NaCl, and 0.01% BSA. Substrate concentrations in the assay were 5 μM ATP (200 uCi/μmole ATP) and 1 μM poly(Glu)4Tyr. Reactions were carried out at 25° C. and 1 nM JAK3.
(§2) To each well of a 96 well polycarbonate plate was added 1.5 μl of a candidate JAK3 inhibitor along with 50 μl of kinase buffer containing […] and 10 μM ATP. This was then mixed and 50 μl of kinase buffer containing 2 nM JAK3 enzyme was added to start the reaction. After 20 minutes at room temperature (25° C.), the reaction was stopped with 50 μl of 20% trichloroacetic acid (TCA) that also contained 0.4 mM ATP. The entire contents of each well were then transferred to a 96 well glass fiber filter plate using a TomTek Cell Harvester. After washing, 60 μl of scintillation fluid was added and ^33P incorporation detected on a Perkin Elmer TopCount.
The assays were as described above in Example 3 except that JAK-2 enzyme was used, the final poly(Glu)4Tyr concentration was 15 μM, and final ATP concentration was 12 μM.

[2] = target: T1, JAK3 (Homo sapiens, UniProt P52333); assay: JAK3 Inhibition Assay; format: biochemical; settings: 5 μM ATP, 1 μM poly(Glu)4Tyr, 1 nM JAK3, 25° C.
T1 sequence (P52333 1-1124): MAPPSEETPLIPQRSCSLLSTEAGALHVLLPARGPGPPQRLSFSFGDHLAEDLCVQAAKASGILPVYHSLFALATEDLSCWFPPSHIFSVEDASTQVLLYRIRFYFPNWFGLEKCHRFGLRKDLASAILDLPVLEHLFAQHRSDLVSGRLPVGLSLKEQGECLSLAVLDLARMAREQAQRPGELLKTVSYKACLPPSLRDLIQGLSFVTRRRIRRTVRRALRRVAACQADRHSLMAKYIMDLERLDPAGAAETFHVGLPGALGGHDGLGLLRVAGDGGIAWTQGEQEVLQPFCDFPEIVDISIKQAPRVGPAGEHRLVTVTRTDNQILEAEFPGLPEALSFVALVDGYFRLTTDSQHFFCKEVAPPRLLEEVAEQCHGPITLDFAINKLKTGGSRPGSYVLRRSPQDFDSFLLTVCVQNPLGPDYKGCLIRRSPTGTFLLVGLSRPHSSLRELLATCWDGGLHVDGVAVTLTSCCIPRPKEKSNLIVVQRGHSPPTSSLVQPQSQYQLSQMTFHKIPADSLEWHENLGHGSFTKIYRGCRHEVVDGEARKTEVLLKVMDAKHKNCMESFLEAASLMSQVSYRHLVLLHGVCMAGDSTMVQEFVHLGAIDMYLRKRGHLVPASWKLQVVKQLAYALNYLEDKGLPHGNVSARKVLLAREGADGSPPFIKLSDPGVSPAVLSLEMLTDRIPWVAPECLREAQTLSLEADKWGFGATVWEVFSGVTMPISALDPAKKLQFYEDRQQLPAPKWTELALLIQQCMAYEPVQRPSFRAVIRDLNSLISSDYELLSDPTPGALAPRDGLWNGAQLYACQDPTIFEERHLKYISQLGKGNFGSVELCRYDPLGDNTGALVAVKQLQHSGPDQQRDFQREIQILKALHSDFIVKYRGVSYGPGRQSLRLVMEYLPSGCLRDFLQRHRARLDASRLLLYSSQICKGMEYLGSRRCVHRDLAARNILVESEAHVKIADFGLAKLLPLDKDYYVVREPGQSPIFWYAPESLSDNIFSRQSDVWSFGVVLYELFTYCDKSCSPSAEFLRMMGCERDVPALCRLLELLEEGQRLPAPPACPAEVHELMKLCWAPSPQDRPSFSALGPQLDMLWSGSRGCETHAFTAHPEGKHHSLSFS
Experimental: as §1, §2

Sequence of JAK-2 enzyme (O60674 whole entry): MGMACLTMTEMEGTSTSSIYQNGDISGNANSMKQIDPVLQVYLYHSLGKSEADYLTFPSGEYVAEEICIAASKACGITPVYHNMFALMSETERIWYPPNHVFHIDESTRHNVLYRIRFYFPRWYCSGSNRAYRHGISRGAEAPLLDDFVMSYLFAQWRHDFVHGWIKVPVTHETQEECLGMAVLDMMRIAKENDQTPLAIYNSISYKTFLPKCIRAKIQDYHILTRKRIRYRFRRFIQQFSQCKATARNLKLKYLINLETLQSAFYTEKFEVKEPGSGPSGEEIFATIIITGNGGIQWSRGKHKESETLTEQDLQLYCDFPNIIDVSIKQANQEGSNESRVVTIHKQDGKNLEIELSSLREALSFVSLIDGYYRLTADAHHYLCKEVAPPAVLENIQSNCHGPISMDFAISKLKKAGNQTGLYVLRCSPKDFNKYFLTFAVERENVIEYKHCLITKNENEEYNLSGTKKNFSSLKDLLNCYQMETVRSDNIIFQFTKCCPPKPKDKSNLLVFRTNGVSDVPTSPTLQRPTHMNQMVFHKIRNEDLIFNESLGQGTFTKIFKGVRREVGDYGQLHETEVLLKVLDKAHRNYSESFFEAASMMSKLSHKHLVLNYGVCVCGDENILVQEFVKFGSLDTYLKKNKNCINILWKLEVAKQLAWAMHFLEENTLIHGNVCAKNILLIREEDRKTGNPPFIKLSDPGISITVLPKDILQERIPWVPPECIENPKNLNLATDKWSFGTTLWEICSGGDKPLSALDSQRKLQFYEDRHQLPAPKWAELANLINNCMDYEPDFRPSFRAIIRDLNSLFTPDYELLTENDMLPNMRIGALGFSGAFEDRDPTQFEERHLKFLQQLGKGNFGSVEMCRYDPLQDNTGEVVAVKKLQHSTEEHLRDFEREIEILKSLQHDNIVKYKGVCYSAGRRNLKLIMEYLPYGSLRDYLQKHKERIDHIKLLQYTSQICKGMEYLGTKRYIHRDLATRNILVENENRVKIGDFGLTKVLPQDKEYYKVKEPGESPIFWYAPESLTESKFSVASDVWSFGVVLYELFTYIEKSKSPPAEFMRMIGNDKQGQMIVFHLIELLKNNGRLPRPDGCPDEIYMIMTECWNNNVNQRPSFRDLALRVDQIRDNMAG

| Compound | Ki [1] | Ki [2] |
| --- | --- | --- |
| CCOC(=O)c1cnc(-c2c[nH]c3ncc(Cl)cc23)nc1N1CCC[C@@H]1C(=O)NCC(F)(F)F [Compound 57] | ≥ 500 nM | – |
| O=C(NCC(F)(F)F)[C@@H]1CNCCN1c1nc(-c2c[nH]c3ncccc23)ncc1F [Compound 321] | ≥ 500 nM | ≥ 100 nM |
| CCN(C)C(=O)[C@H]1CCCN1c1ccnc(-c2c[nH]c3ncc(Cl)cc23)n1 [Compound 337] | – | ≥ 100 nM |
| CN(CC(F)(F)F)C(=O)[C@H]1CCCN1c1nc(-c2c[nH]c3ncc(Cl)cc23)ncc1O [Compound 340] | ≥ 500 nM | ≥ 100 nM |
| CN(c1nc(-c2c[nH]c3ncccc23)ncc1F)C1(C(=O)NCC(F)(F)F)CC1 [Compound 356] | ≥ 500 nM | ≥ 100 nM |
| CC(C)(Nc1nc(-c2c[nH]c3ncc(Cl)cc23)ncc1C#N)C(=O)NCCC(F)(F)F [Compound 326] | – | ≥ 100 nM |
| O=C(NCC(F)(F)F)[C@@H]1CCCN1c1nc(-c2c[nH]c3ncccc23)ncc1F [Compound 310] | ≥ 500 nM | ≥ 100 nM |
| COc1cc2nc(-c3c[nH]c4ncccc34)nc(NC(C)(C)C(=O)NCC(F)F)c2cc1OC [Compound 390] | – | ≥ 100 nM |
| CNC(=O)c1cc(N2CCC[C@@H]2C(=O)NCC(F)(F)F)nc(-c2c[nH]c3ncc(Cl)cc23)n1 [Compound 317] | ≥ 500 nM | ≥ 100 nM |
| O=C(NCC(F)(F)F)[C@@H]1CCCCN1c1nc(-c2c[nH]c3ncc(Cl)cc23)ncc1F [Compound 68] | ≥ 5000 nM | ≥ 2000 nM |
| CCC(CC)(Nc1ccnc(-c2c[nH]c3ncccc23)n1)C(=O)NCC(F)(F)F [Compound 348] | ≥ 500 nM | – |
| O=C(O)c1cnc(-c2c[nH]c3ncc(Cl)cc23)nc1N1CCC[C@@H]1C(=O)NCC(F)(F)F [Compound 56] | ≥ 500 nM | ≥ 100 nM |
| CCCNC(=O)C(C)(C)Nc1nc(-c2c[nH]c3ncc(Cl)cc23)nc2cc(OC)c(OC)cc12 [Compound 223] | – | ≥ 100 nM |
| CC(C)NC(=O)[C@H]1CCCN1c1nc(-c2c[nH]c3ncc(Cl)cc23)ncc1F [Compound 322] | – | ≥ 100 nM |
| O=C(NC1CC1)[C@H]1CCCN1c1nc(-c2c[nH]c3ncc(Cl)cc23)ncc1F [Compound 177] | – | ≥ 100 nM |
| O=C(NC1CC1)c1cc(N2CCC[C@@H]2C(=O)NCC(F)(F)F)nc(-c2c[nH]c3ncc(Cl)cc23)n1 [Compound 320] | ≥ 500 nM | ≥ 100 nM |

| Compound | Ki [1] | Ki [2] |
| --- | --- | --- |
| O=C(NCC(F)(F)F)[C@H]1C[C@H](O)CN1c1nc(-c2c[nH]c3ncccc23)ncc1F [Compound 351] | ≥ 500 nM | ≥ 100 nM |
| CC(C)[C@@H](Nc1nc(-c2c[nH]c3ncccc23)ncc1F)C(=O)NCC(F)(F)F [Compound 367] | ≥ 500 nM | ≥ 100 nM |
| COc1cc2nc(-c3c[nH]c4ncccc34)nc(NC(C)(C)C(=O)NCCF)c2cc1OC [Compound 388] | – | ≥ 100 nM |
| CC(C)(C)CC(=O)N1CCN(c2ccnc(-c3c[nH]c4ncccc34)n2)[C@@H](C(=O)NCC(F)(F)F)C1 [Compound 370] | – | ≥ 100 nM |
| COC(=O)c1cc(N2CCC[C@@H]2C(=O)NCC(F)(F)F)nc(-c2c[nH]c3ncc(Cl)cc23)n1 [Compound 35] | ≥ 500 nM | ≥ 100 nM |
| CC(C)CC(=O)N1CCN(c2ccnc(-c3c[nH]c4ncccc34)n2)[C@@H](C(=O)NCC(F)(F)F)C1 [Compound 369] | – | ≥ 100 nM |
| CCN(C)C(=O)[C@H]1CCCN1c1nc(-c2c[nH]c3ncc(Cl)cc23)ncc1F [Compound 336] | ≥ 500 nM | ≥ 100 nM |
| CCCNC(=O)c1cc(N2CCC[C@@H]2C(=O)NCC(F)(F)F)nc(-c2c[nH]c3ncc(Cl)cc23)n1 [Compound 319] | ≥ 5000 nM | ≥ 2000 nM |
| C[C@H]1CCN(c2nc(-c3c[nH]c4ncc(Cl)cc34)ncc2F)[C@@H]1C(=O)NCC(F)(F)F [Compound 9] | ≥ 500 nM | – |
| CCCNC(=O)N1CCN(c2ccnc(-c3c[nH]c4ncccc34)n2)[C@@H](C(=O)NCC(F)(F)F)C1 [Compound 372] | ≥ 500 nM | – |
| CN(CC(F)(F)F)C(=O)[C@H]1CCCN1c1nc(-c2c[nH]c3ncccc23)ncc1O [Compound 339] | ≥ 500 nM | ≥ 100 nM |
| O=C(NCC(F)(F)F)C1COCCN1c1nc(-c2c[nH]c3ncc(Cl)cc23)ncc1F (stereo not drawn) [Compound 38] | ≥ 500 nM | – |
| CC(C)C[C@@H](Nc1nc(-c2cn(C)c3ncc(Cl)cc23)ncc1F)C(=O)NCC(F)(F)F [Compound 22] | ≥ 500 nM | ≥ 100 nM |
| CCNC(=O)c1cc(N2CCC[C@@H]2C(=O)NCC(F)(F)F)nc(-c2c[nH]c3ncc(Cl)cc23)n1 [Compound 318] | ≥ 5000 nM | ≥ 100 nM |
| CCOC(=O)c1cnc(-c2c[nH]c3ncc(Cl)cc23)nc1N1CCC[C@@H]1C(=O)N(C)CC(F)(F)F [Compound 338] | ≥ 500 nM | ≥ 100 nM |
